The record followed here is patent EP0385381A2, “Inhibitor of restenosis after percutaneous transluminal coronary angioplasty” (DAIICHI PHARMACEUTICAL CO., LTD., priority 1989, dated 1990).

The assay relates to post-PTCA restenosis. The experiment in a line: Clinical study of inhibition of post-PTCA restenosis, evaluated from coronary angiographic findings. Format: in vivo, patients with angina pectoris. The method, then:
In 18 patients with angina pectoris in whom elective PTCA was indicated, 6-(1-imidazolylmethyl)- 5,6,7,8-tetrahydronaphthalene-2-carboxylic acid hydrochloride hemihydrate (hereinafter, referred to as Compound A) was administered orally in a dose of 200 mg three times a day after each meal (600 mg/day) pre-angioplasty, beginning about three days before PTCA, and post angioplasty for 3 months (treated group). Coronary angiography was performed before, immediately after, and 3 months after PTCA. Based on the coronary angiographic findings, inhibition of restenosis of the right coronary artery, left anterior descending artery and left circumflex artery was evaluated, by site of lesion, according to the criteria in Table 1 shown below. Further, based on the results of the evaluation, overall efficacy evaluation by individual patient was made.
In regard to luminal diameter: • 1. Excellent post-angioplasty course: unchanged or expanded • 2. Good post-angioplasty course: a decrease in luminal diameter of less than 50% • 3. Poor post-angioplasty course: a decrease in luminal diameter of 50% or more and less than 100% • 4. Worse post-angioplasty course: a decrease in luminal diameter of 100% or progression of stenosis as compared with pre-PTCA condition
As controls (control group), placebo was similarly administered to 15 patients with angina pectoris in whom effective PTCA was indicated and coronary angiography was performed before and after PTCA.
In both of the treated and control groups, calcium antagonists, viz. nifedipine and diltiazem, antianginal drugs, viz. ISDN and nicorandil, and antiarteriosclerotic agents, viz. elastase, etc. were used concurrently as necessary as shown in Table 2 below. However, there was no significant difference (χ² test) between the two groups in the use of concomitant drugs, as in other patient characteristics.

Where [1] appears, read: Left Anterior Descending Artery, number of lesions rated (of 9), 600 mg/day oral, 3 months after PTCA.
Setting [2] is: Left Circumflex Artery, number of lesions rated (of 11), 600 mg/day oral, 3 months after PTCA.
Where [3] appears, read: Right Coronary Artery, number of lesions rated (of 8), 600 mg/day oral, 3 months after PTCA.
The mark [4] stands for this setting: Total, number of lesions rated (of 28), Wilcoxon test P=0.100 vs control group.
Setting [5] is: number of patients rated (of 18), Wilcoxon test P=0.010 vs control group.

Where a name gives a salt, the structure may show the parent alone.

`O=C(O)c1ccc2c(c1)CCC(Cn1ccnc1)C2` (stereo not drawn) [Compound A, 6-(1-imidazolylmethyl)-5,6,7,8-tetrahydronaphthalene-2-carboxylic acid hydrochloride hemihydrate]: the “Overall Efficacy Evaluation, by Individual Patient: Excellent, Cumulative %” value (18 patients) is listed as “(38.9%)”. In addition, the “Overall Efficacy Evaluation, by Individual Patient: Good, Cumulative %” value (18 patients, Excellent plus Good) is given as “(77.8%)”. Under setting [1], the “Evaluation of coronary angiographic findings by site of lesion: Excellent” value was determined as 4, the “Evaluation of coronary angiographic findings by site of lesion: Good” value worked out at 3, the “Evaluation of coronary angiographic findings by site of lesion: Poor” value (from here on “Evaluation … of lesion: Poor”) was 1 and the “Evaluation of coronary angiographic findings by site of lesion: Worse” value (“Evaluation … of lesion: Worse” below) stood at 1. Also, under setting [2], the “Evaluation of coronary angiographic findings by site of lesion: Excellent” value was 2, the “Evaluation of coronary angiographic findings by site of lesion: Good” value stood at 7, the “Evaluation … of lesion: Poor” value is reported as 1 and the “Evaluation … of lesion: Worse” value is 1. In addition, under setting [3], the “Evaluation of coronary angiographic findings by site of lesion: Excellent” value was 3, the “Evaluation of coronary angiographic findings by site of lesion: Good” value is reported as 4, the “Evaluation … of lesion: Poor” value is 0 and the “Evaluation … of lesion: Worse” value is given as 1. Also, under “Total of 28 lesions”, the “Evaluation of coronary angiographic findings by site of lesion: Excellent, Cumulative %” value is given as “(32.1%)”. For the same molecule, the “Evaluation of coronary angiographic findings by site of lesion: Good, Cumulative %” value (Total of 28 lesions, Excellent plus Good) was “(83.1%)”. Also, under setting [4], the “Evaluation of coronary angiographic findings by site of lesion: Excellent” value is listed as 9, the “Evaluation of coronary angiographic findings by site of lesion: Good” value amounted to 14, the “Evaluation … of lesion: Poor” value is 2 and the “Evaluation … of lesion: Worse” value is 3. The “Overall Efficacy Evaluation, by Individual Patient: Excellent” value (number of patients rated (of 18), Wilcoxon test P=0.010, Fisher test (excellent ratings) P=0.009 vs control group) is given as 7. Also, under setting [5], the “Overall Efficacy Evaluation, by Individual Patient: Good” value is on record as 7; the “Overall Efficacy Evaluation, by Individual Patient: Poor” value was determined as 3; the “Overall Efficacy Evaluation, by Individual Patient: Worse” value was 1.
